# Counter-ions that a name gives are not always drawn.
# What was measured:
# [1] = thermal stability by thermogravimetric (TG) and DSC analysis; assay type: physicochemical; details: solvent-free anhydrous form, 10° C./min, N2
# Description: The characterization of trans 4-{2-[4-(2,3-dichlorophenyl)-piperazine-1-yl]-ethyl}-N,N-dimethylcarbamoyl-cyclohexylamine monohydrochloride was carried out by thermogravimetric (TG), differential scanning […] (DSC), infrared spectroscopic (FT-IR), Raman spectroscopic (FT-Raman) and powder X-ray diffraction (PXRD) solid phase analytical methods.
# [2] = stability when stored in the solid state (long term and accelerated); assay type: physicochemical
smiles,measurement,setting,value
"CN(C)C(=O)NC1CCC(CCN2CCN(c3cccc(Cl)c3Cl)CC2)CC1 (stereo not drawn) [monohydrochloride, Trans 4-{2-[4-(2,3-dichlorophenyl)-piperazine-1-yl]-ethyl}-N,N-dimethylcarbamoyl-cyclohexylamine monohydrochloride]",satisfactory thermal stability up to,[1],about 200 °C
same,long term stability,[2]; 25±2° C./60±5% RH,48 months
same,accelerated stability,[2]; 40±2° C./75±5% RH,6 months
